Experiments:
[1] = system: BDL rats; assay: Bile duct ligation (BDL) rat model; type: in vivo; settings: 100 mg·kg-1 oral, 14 days
Procedure: (§1) Cells and liver tissue samples were subjected to RNA extraction and purification, followed by reverse transcription of equal amounts of total RNA into […] using a Transcriptor First Strand cDNA Synthesis Kit (Roche). The relative expression levels of the target gene were determined using TaqMan probe/primers with an ABI Q3 quantitative real-time PCR system, while GAPDH/Gapdh was utilized as an internal control for mRNA expression. The fold change in the expression of the target mRNA was calculated using Equation 2^−ΔΔCt.
The study involved 24 rats that were randomly assigned to 1 of 3 groups, including sham, BDL-N.S., and BDL-10b-100mg·kg^−1, ensuring 8 animals per group using Research Randomizer (RRID: SCR_008563). Of the 24 rats, 16 underwent BDL surgery, wherein the choledochal duct was ligated with surgical sutures after administering isoflurane anesthesia. After 24 h, the BDL rats were randomly divided into […] and received daily gavages of either normal saline (BDL-NS group) or 100 mg·kg^−1 of compound 10b suspended in 0.5% sodium carboxymethylcellulose solution (BDL-10b groups) for 14 days. A healthy control group was established with eight rats undergoing sham surgery. Bodyweights were measured daily, and blood samples were collected from the abdominal aorta after an overnight fast. Euthanasia was performed using isoflurane, following which bile was collected using a syringe, and liver tissue samples were collected. Some of the samples were fixed with 4% paraformaldehyde for subsequent histological examination, while others were stored at −80 °C for further analysis.
(§2) Kits purchased from Zhongsheng Beikong Biotechnology (Beijing, China) were used to measure the serum concentrations of alanine aminotransferase, aspartate aminotransferase, alkaline phosphatase, γ-glutamyl transpeptidase, total cholesterol, total triglyceride, low-density lipoprotein (LDL), high-density lipoprotein (HDL) cholesterol, lactate dehydrogenase, total bile acid, and total bilirubin. The samples were analyzed on a Hitachi 7100 Analyzer.
(§3) The liver tissue was fixed with formalin, embedded in paraffin, and sectioned. The sections were stained with H&E, Oil Red, Masson’s, and Sirius Red. Liver necrosis, inflammation, bile duct proliferation, hepatic steatosis, and lobule inflammation were evaluated on a scale of 1–5 in a blinded manner using a Leica DM1000 microscope. Five randomly selected manifold area fields of vision were used to quantify the red area in each field of vision (eight in each group), which was counted using ImageJ software. The liver hydroxyproline concentration was determined using kits from Nanjing, China, in accordance with the manufacturer’s instructions.

[2] = system: HFD mice; assay: CDAHFD diet-induced NASH mouse model; type: in vivo
Procedure: as §1
A total of 24 C57BL/6N mice were randomly assigned to three groups, including Ctrl., Model-N.S., and Model-10b-100 mg·kg^−1, with eight animals per group. The randomization process was performed using Research Randomizer (RRID: SCR_008563). CDHFD (D09100310) diet was obtained from Research Diets Inc. Sixteen mice were fed the CDHFD diet for 12 weeks to induce NASH, with eight mice receiving a normal diet as a control. At the beginning of the 13th week, the mice in the model group were randomly assigned into two groups and given daily gavages of either normal saline (Model-N.S. group) or 100 mg·kg^−1 of compound 10b suspended in 0.5% sodium carboxymethylcellulose solution (Model-10b groups) for four weeks. Daily bodyweights were recorded, and blood samples were collected from the abdominal aorta following an overnight fast. Afterward, the mice were euthanized using isoflurane. Liver tissue samples were obtained, and some were treated with 4% paraformaldehyde to prepare them for future histological analysis, while others were kept at −80 °C for later examination. Maximum liver lobule was collected for each mouse.
as §2, §3
The mouse liver samples were cut into small pieces of 50 mg size and homogenized in TG, TC, and FC extracts using a high-speed tissue homogenizer. The TG, TC, and FC were then extracted from the tissue, and their contents in the sample were calculated using the protein content for calibration. The determination process utilized the test kit for TC, TG, and FC of high-fat samples from Applygen Technologies Inc. (E1025, E1026, E1027).

[3] = HFD (CDAHFD) mice, 100 mg·kg-1 gavage daily, four weeks

CC1(C)CCC2(C(=O)O)CCC3(C)C(C(OC(=O)CCC(NC(=O)OC(C)(C)C)C(=O)OC(C)(C)C)CC4C5(C)CCC(O)C(C)(C)C5CCC43C)C2C1 [Compound 10b, 3β-hydroxy-12β-(4′-((tert-butoxycarbonyl)amide)-5′-(tert-butoxy)-L-glutamte)oxy-13H-olean-28-oic acid]
Bile TBA [1]: 249.4 ± 103.67 µmol/L | Bile TBiL [1]: 5.8 ± 2.46 µmol/L | Serum ALP [1]: 391.33±52.42 U·L-1 | Serum HDL [1]: 0.29 ± 0.06 mmol/L | Serum LDL [1]: 1.06 ± 0.22 mmol/L | Serum γ-GT [1]: 37.5±6.74 U·L-1 | Urine TBA [1]: 15.38 ± 5.76 µmol/L | Urine TBiL [1]: 5.33 ± 1.50 µmol/L | expression of fibrogenic genes Col1a1, Acta2, Tgfb1, Mmp2, Timp1, Itgav, Ctgf in rat liver (qRT-PCR) [1]: reduced | liver collagen accumulation (Sirius red staining) [1]: significantly attenuated | pathological impairments (bile duct hyperplasia, parenchymal necrosis, inflammation; H&E) [1]: substantially reduced | liver necrosis scores (blinded assessment) ([1]; vs BDL rats): significantly lower | hepatic lobular inflammation (NAS score) ([2]; CDAHFD mice, 100 mg·kg-1): improved | intrahepatic steatosis (NAS score) ([2]; CDAHFD mice, 100 mg·kg-1): improved | liver FC (free cholesterol) ([2]; CDAHFD mice, 100 mg·kg-1): no significant effect | liver TC ([2]; CDAHFD mice, 100 mg·kg-1): no significant effect | total triglyceride content in the liver ([2]; CDAHFD mice, 100 mg·kg-1): reduced | Serum ALP [2, 3]: 189.71±29.41 U·L-1 | Serum ALT [2, 3]: 325.43±88.40 U·L-1 | Serum AST [2, 3]: 401.86±91.05 U·L-1 | Serum CHO [2, 3]: 2.36 ± 0.44 mmol/L | Serum Glu [2, 3]: 5.71 ± 1.25 mmol/L | Serum HDL [2, 3]: 1.22 ± 0.33 mmol/L | Serum LDH [2, 3]: 1326.57±264.54 U·L-1 | Serum LDL [2, 3]: 0.23 ± 0.04 mmol/L | Serum TBA [2, 3]: 23.46 ± 12.81 µmol/L | Serum TBiL [2, 3]: 3.81 ± 0.92 µmol/L | mRNA expression of liver fibrosis-related genes in liver ([2]; NASH mouse model, 100 mg·kg-1): inhibit

Source: paper PMC10221314 (Pharmaceuticals, 2023)
